According to ChEMBL document CHEMBL1201862, “PubChem BioAssay data set” (2004):
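Where inhibition never reached the appropriate level, the endpoint shown equals the highest concentration tested. Otherwise, values were interpolated linearly from a five-concentration, 48-hour dose response in 96-well plates. Abbreviation: GI50, concentration required for 50% inhibition of growth.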 Calls of active or inactive are those of the source. No stated cut-off is given here; in the data, active = GI50 up to about 1.1 µM and inactive = higher.

Tests used:
Assay in all cases: NCI-60 cell line screen, 48 h
786-0 = tested on: 786-0
A498 = tested on: A498
A549 = tested on: A549
ACHN = tested on: ACHN
BT-549 = tested on: BT-549
CAKI-1 = tested on: CAKI-1
CCRF-CEM = tested on: CCRF-CEM
COLO 205 = tested on: COLO 205
DU-145 = tested on: DU-145
EKVX = tested on: EKVX
HCC 2998 = tested on: HCC 2998
HCT-116 = tested on: HCT-116
HCT-15 = tested on: HCT-15
HL-60 = tested on: HL-60
HOP-62 = tested on: HOP-62
HOP-92 = tested on: HOP-92
HT-29 = tested on: HT-29
Hs-578T = tested on: Hs-578T
IGROV-1 = tested on: IGROV-1
K562 = tested on: K562
KM12 = tested on: KM12
M14 = tested on: M14
MCF7 = tested on: MCF7
MDA-MB-231 = tested on: MDA-MB-231
MDA-MB-435 = tested on: MDA-MB-435
MDA-N = tested on: MDA-N
MOLT-4 = tested on: MOLT-4
Malme-3M = tested on: Malme-3M
NCI-H226 = tested on: NCI-H226
NCI-H23 = tested on: NCI-H23
NCI-H460 = tested on: NCI-H460
NCI-H522 = tested on: NCI-H522
NCI/ADR-RES = tested on: NCI/ADR-RES
OVCAR-3 = tested on: OVCAR-3
OVCAR-4 = tested on: OVCAR-4
OVCAR-5 = tested on: OVCAR-5
OVCAR-8 = tested on: OVCAR-8
PC-3 = tested on: PC-3
RPMI-8226 = tested on: RPMI-8226
RXF 393 = tested on: RXF 393
SF-268 = tested on: SF-268
SF-295 = tested on: SF-295
SF-539 = tested on: SF-539
SK-MEL-28 = tested on: SK-MEL-28
SK-MEL-2 = tested on: SK-MEL-2
SK-MEL-5 = tested on: SK-MEL-5
SK-OV-3 = tested on: SK-OV-3
SN12C = tested on: SN12C
SNB-19 = tested on: SNB-19
SNB-75 = tested on: SNB-75
SR = tested on: SR
SW-620 = tested on: SW-620
T47D = tested on: T47D
TK-10 = tested on: TK-10
U-251 = tested on: U-251
UACC-257 = tested on: UACC-257
UACC-62 = tested on: UACC-62
UO-31 = tested on: UO-31
LOX IMVI = tested on: LOX IMVI

`CC(C)=C[C@@H]1O[C@H](O)[C@@H]([C@H]2CC[C@@]3(C)[C@@H]4CC[C@H]5C(C)(C)C(=O)CC[C@@]56C[C@@]46CC[C@]23C)[C@@H]1O` was tested, and the GI50 (786-0) was 14.3 µM (inactive), the GI50 (A498) was 18.3 µM (inactive) and the GI50 (A549) was 14.4 µM (inactive). For the same compound, the GI50 (ACHN) was 18.1 µM (inactive), the GI50 (BT-549) was 20.1 µM (inactive) and the GI50 (CAKI-1) was 17.3 µM (inactive). The GI50 (CCRF-CEM) was 9.93 µM (inactive), the GI50 (COLO 205) was 20.1 µM (inactive) and the GI50 (DU-145) was 16.1 µM (inactive). For the same compound, the GI50 (EKVX) was 18.5 µM (inactive), the GI50 (HCC 2998) was 18.6 µM (inactive) and the GI50 (HCT-116) was 15.2 µM (inactive). The GI50 (HCT-15) was 16.9 µM, the GI50 (HL-60) was 14.2 µM (inactive) and the GI50 (HOP-62) was 23.7 µM (inactive). For the same compound, the GI50 (HOP-92) was 16.6 µM (inactive), the GI50 (HT-29) was 11.8 µM (inactive) and the GI50 (Hs-578T) was 21.2 µM (inactive). The GI50 (IGROV-1) was 19.5 µM (inactive), the GI50 (K562) was 15.6 µM (inactive) and the GI50 (KM12) was 18.1 µM (inactive). For the same compound, the GI50 (M14) was 21 µM (inactive), the GI50 (MCF7) was 4.14 µM (inactive) and the GI50 (MDA-MB-231) was 19.5 µM (inactive). The GI50 (MDA-MB-435) was 17.7 µM (inactive), the GI50 (MDA-N) was 15.9 µM (inactive) and the GI50 (MOLT-4) was 14.1 µM (inactive). For the same compound, the GI50 (Malme-3M) was 16.8 µM (inactive), the GI50 (NCI-H226) was 11.7 µM (inactive) and the GI50 (NCI-H23) was 16.4 µM (inactive). For the same compound, the GI50 (NCI-H460) was 19.5 µM (inactive), the GI50 (NCI-H522) was 13.1 µM (inactive) and the GI50 (NCI/ADR-RES) was 16.7 µM (inactive). For the same compound, the GI50 (OVCAR-3) was 13.2 µM (inactive), the GI50 (OVCAR-4) was 18.1 µM (inactive) and the GI50 (OVCAR-5) was 23.1 µM (inactive). For the same compound, the GI50 (OVCAR-8) was 15.4 µM (inactive), the GI50 (PC-3) was 13 µM (inactive) and the GI50 (RPMI-8226) was 3.14 µM (inactive). For the same compound, the GI50 (RXF 393) was 12.7 µM (inactive), the GI50 (SF-268) was 17.6 µM (inactive) and the GI50 (SF-295) was 16.1 µM (inactive). For the same compound, the GI50 (SF-539) was 12.4 µM (inactive), the GI50 (SK-MEL-28) was 22.8 µM (inactive) and the GI50 (SK-MEL-2) was 20 µM (inactive). The GI50 (SK-MEL-5) was 17.7 µM (inactive), the GI50 (SK-OV-3) was 16.5 µM (inactive) and the GI50 (SN12C) was 19.3 µM (inactive). For the same compound, the GI50 (SNB-19) was 20.9 µM (inactive), the GI50 (SNB-75) was 17.7 µM (inactive) and the GI50 (SR) was 9.64 µM (inactive). The GI50 (SW-620) was 13.1 µM (inactive), the GI50 (T47D) was 14.6 µM (inactive) and the GI50 (TK-10) was 16 µM (inactive). The GI50 (U-251) was 17 µM (inactive), the GI50 (UACC-257) was 16.7 µM (inactive) and the GI50 (UACC-62) was 18.1 µM (inactive). The GI50 (UO-31) was 15.3 µM (inactive).
`Cc1n[nH]c(=O)n1-c1cccnc1` was tested, and the GI50 (786-0) was > 100 µM (inactive), the GI50 (A498) was > 100 µM (inactive) and the GI50 (A549) was > 100 µM (inactive). The GI50 (ACHN) was > 100 µM (inactive), the GI50 (BT-549) was > 100 µM (inactive) and the GI50 (CAKI-1) was > 100 µM (inactive). For the same compound, the GI50 (CCRF-CEM) was > 100 µM (inactive), the GI50 (COLO 205) was > 100 µM (inactive) and the GI50 (DU-145) was > 100 µM (inactive). The GI50 (EKVX) was > 100 µM (inactive), the GI50 (HCC 2998) was > 100 µM (inactive) and the GI50 (HCT-116) was > 100 µM (inactive). The GI50 (HCT-15) was > 100 µM, the GI50 (HL-60) was > 100 µM (inactive) and the GI50 (HOP-62) was > 100 µM (inactive). The GI50 (HOP-92) was > 100 µM (inactive), the GI50 (HT-29) was > 100 µM (inactive) and the GI50 (Hs-578T) was > 100 µM (inactive). For the same compound, the GI50 (IGROV-1) was > 100 µM (inactive), the GI50 (K562) was > 100 µM (inactive) and the GI50 (KM12) was > 100 µM (inactive). The GI50 (LOX IMVI) was > 100 µM (inactive), the GI50 (M14) was > 100 µM (inactive) and the GI50 (MCF7) was > 100 µM (inactive). For the same compound, the GI50 (MDA-MB-231) was > 100 µM (inactive), the GI50 (MDA-MB-435) was > 100 µM (inactive) and the GI50 (MDA-N) was > 100 µM (inactive). The GI50 (MOLT-4) was > 100 µM (inactive), the GI50 (Malme-3M) was > 100 µM (inactive) and the GI50 (NCI-H226) was > 100 µM (inactive). The GI50 (NCI-H23) was > 100 µM (inactive), the GI50 (NCI-H460) was > 100 µM (inactive) and the GI50 (NCI-H522) was > 100 µM (inactive). The GI50 (NCI/ADR-RES) was > 100 µM (inactive), the GI50 (OVCAR-3) was > 100 µM (inactive) and the GI50 (OVCAR-4) was > 100 µM (inactive). For the same compound, the GI50 (OVCAR-5) was > 100 µM (inactive), the GI50 (OVCAR-8) was > 100 µM (inactive) and the GI50 (PC-3) was > 100 µM (inactive). For the same compound, the GI50 (RPMI-8226) was > 100 µM (inactive), the GI50 (RXF 393) was > 100 µM (inactive) and the GI50 (SF-268) was > 100 µM (inactive). The GI50 (SF-295) was > 100 µM (inactive), the GI50 (SF-539) was > 100 µM (inactive) and the GI50 (SK-MEL-28) was > 100 µM (inactive). The GI50 (SK-MEL-5) was > 100 µM (inactive), the GI50 (SN12C) was > 100 µM (inactive) and the GI50 (SNB-19) was > 100 µM (inactive). For the same compound, the GI50 (SNB-75) was > 100 µM (inactive), the GI50 (SR) was > 100 µM (inactive) and the GI50 (SW-620) was > 100 µM (inactive). For the same compound, the GI50 (T47D) was > 100 µM (inactive), the GI50 (TK-10) was > 100 µM (inactive) and the GI50 (U-251) was > 100 µM (inactive). The GI50 (UACC-257) was > 100 µM (inactive) and the GI50 (UO-31) was > 100 µM (inactive).
